Measurements taken from ChEMBL document CHEMBL1138909, “Structure-activity studies of oxazolidinone analogs as RNA-binding agents” (Bioorg Med Chem Lett, 2006).
Activity calls are given as the source filed them. The rule behind the calls is not given here.

Experiments:
Format in all cases: nucleic-acid assay
Nucleic Acid [1] = experiment: Binding activity at antiterminator RNA AM1A relative to methyl 2-((4R,5S)-4-benzyl-2-oxo-5-((2-phenylacetoxy)methyl)oxazolidin-3-yl)benzoate after 10 mins
Nucleic Acid [2] = experiment: Binding activity at antiterminator RNA AM1A(C11U) after 10 mins
Nucleic Acid [3] = experiment: Binding activity at antiterminator RNA AM1A after 10 mins
Nucleic Acid [4] = experiment: Binding activity at antiterminator RNA AM1A upto 200 uM after 10 mins
Nucleic Acid [5] = experiment: Binding activity at antiterminator RNA AM1A(C11U) upto 200 uM after 10 mins
Nucleic Acid [6] = experiment: Binding activity at antiterminator RNA AM1A(C11U) after 120 mins

Compound	Activity (Nucleic Acid [1])	Activity (Nucleic Acid [2])	also measured
COc1ccc(N2C(=O)O[C@H](COC(=O)Cc3ccccc3)[C@H]2CCCc2ccccc2)cc1	0.75	–	–
COc1ccc(N2C(=O)O[C@H](COC(=O)C3CCCCC3)[C@H]2CCCc2ccccc2)cc1	0.64	0.7	–
COc1ccc(N2C(=O)O[C@H](COC(=O)C3CCCCC3)[C@H]2Cc2ccccc2)cc1	0.73	0.77	–
CCCCCCCC(=O)OC[C@H]1OC(=O)N(CCCC)[C@@H]1Cc1ccccc1	1.16	1.37	–
COc1ccc(N2C(=O)O[C@H](COC(=O)C3CCCCC3)[C@H]2CC2CCCCC2)cc1	0.61	0.82	–
COC(=O)c1ccccc1N1C(=O)O[C@H](COC(=O)Cc2ccccc2)[C@H]1CC1CCCCC1	0.39	0.77	–
COc1ccc(N2C(=O)O[C@H](COC(=O)Cc3ccccc3)[C@H]2Cc2ccccc2)cc1	0.81	0.23	Kd (Nucleic Acid [2]): 25 µM; Kd (Nucleic Acid [3]): 3.4 µM
CCCCCCCC(=O)OC[C@H]1OC(=O)N(c2ccc(OC)cc2)[C@@H]1Cc1ccccc1	0.43	0.68	–
CCCCCCCC(=O)OC[C@H]1OC(=O)N(c2ccccc2C(=O)OC)[C@@H]1CCCc1ccccc1	1.21	0.76	–
CCCCCCCC(=O)OC[C@H]1OC(=O)N(CCCC)[C@@H]1CCCc1ccccc1	0.56	0.69	–
COc1ccc(N2C(=O)O[C@H](COC(=O)Cc3ccccc3)[C@H]2CC2CCCCC2)cc1	0.71	1.05	–
CCCCCCCC(=O)OC[C@H]1OC(=O)N[C@@H]1Cc1ccccc1	–	–	Activity (Nucleic Acid [4]): inactive; Activity (Nucleic Acid [5]): inactive
CCCCCCCC(=O)OC[C@H]1OC(=O)N(c2ccccc2C(=O)OC)[C@@H]1CC1CCCCC1	0.47	0.97	–
COC(=O)c1ccccc1N1C(=O)O[C@H](COC(=O)C2CCCCC2)[C@H]1Cc1ccccc1	0.64	1.19	–
COC(=O)c1ccccc1N1C(=O)O[C@H](COC(=O)Cc2ccccc2)[C@H]1Cc1ccccc1	–	1.47	Activity (Nucleic Acid [3]): 1
CCCCCCCC(=O)OC[C@H]1OC(=O)N(c2ccccc2C(=O)OC)[C@@H]1Cc1ccccc1	1.19	1.06	–
CCCCCCC(=O)OC[C@H]1OC(=O)N[C@@H]1Cc1ccccc1	–	–	Kd (Nucleic Acid [6]): 14.3 µM; Kd (Nucleic Acid [3]): 10 µM
CCCCCCCC(=O)OC[C@H]1OC(=O)N(c2ccc(OC)cc2)[C@@H]1CCCc1ccccc1	0.65	0.72	–
CCCCN1C(=O)O[C@H](COC(=O)C2CCCCC2)[C@H]1CCCc1ccccc1	0.65	0.78	–
O=C(Cc1ccccc1)OC[C@H]1OC(=O)N[C@@H]1Cc1ccccc1	–	–	Kd (Nucleic Acid [2]): 125 µM; Kd (Nucleic Acid [3]): 9 µM
COC(=O)c1ccccc1N1C(=O)O[C@H](COC(=O)C2CCCCC2)[C@H]1CCCc1ccccc1	0.71	0.78	–
COC(=O)c1ccccc1N1C(=O)O[C@H](COC(=O)C2CCCCC2)[C@H]1CC1CCCCC1	0.61	0.8	–
CCCCCCCC(=O)OC[C@H]1OC(=O)N(c2ccc(OC)cc2)[C@@H]1CC1CCCCC1	0.58	0.78	–
CCCCN1C(=O)O[C@H](COC(=O)Cc2ccccc2)[C@H]1CC1CCCCC1	0.58	0.78	–
CCCCN1C(=O)O[C@H](COC(=O)Cc2ccccc2)[C@H]1CCCc1ccccc1	0.72	0.7	–
CCCCN1C(=O)O[C@H](COC(=O)Cc2ccccc2)[C@H]1Cc1ccccc1	0.48	0.36	–
CCCCN1C(=O)O[C@H](COC(=O)C2CCCCC2)[C@H]1CC1CCCCC1	0.54	0.7	–
CCCCN1C(=O)O[C@H](COC(=O)C2CCCCC2)[C@H]1Cc1ccccc1	0.48	0.59	–
CCCCCCCC(=O)OC[C@H]1OC(=O)N(CCCC)[C@@H]1CC1CCCCC1	0.73	1.05	–
COC(=O)c1ccccc1N1C(=O)O[C@H](COC(=O)Cc2ccccc2)[C@H]1CCCc1ccccc1	0.79	1.12	–
